Test results as given in patent US4235911A, “Hydantoin derivatives” (Pfizer Inc., priority 1979, dated 1980).

Key:
[1] = tested on: galactitol levels in the lens of galactosemic subjects; assay: lowering of galactitol levels in the lens of galactosemic subjects; type: in vivo; settings: statement in words
Protocol: (§1) The activity of the compounds of the present invention, as agents for the control of chronic diabetic complications, is determined by their ability to successfully pass one or more of the following standard biological and/or pharmacological tests, viz., (1) measuring their ability to inhibit the enzyme activity of isolated aldose reductase; (2) measuring their ability to reduce or inhibit sorbitol accumulation in the sciatic nerve of acutely streptozotocinized (i.e., diabetic) rats; (3) measuring their ability to reverse already-elevated sorbitol levels in the sciatic nerve and lens of chronic streptozotocin-induced diabetic rats; (4) measuring their ability to prevent or inhibit galactitol formation in the lens of acutely galactosemic rats, and (5) measuring their ability to delay cataract formation and reduce the severity of lens opacities in chronic galactosemic rats.

aldose reductase = molecular target: T1, aldose reductase (Bos taurus, UniProt P16116); assay: inhibition of isolated aldose reductase enzyme activity (procedure of S. Hayman et al. as modified by K. Sestanj et al.); type: biochemical, calf; settings: for IC50: partially purified aldose reductase from calf lens, 50% reduction in enzyme activity, read-out: Concentration Level (IC50); for aldose reductase inhibitory activity: statement in words
T1 construct: partially purified aldose reductase enzyme obtained from calf lens; from tissue; host or cells: calf lens
Protocol: as §1, with “rats. The following tetrahydroquinoline-derived spiro-hydantoin compounds of Examples 1-4, respectively, were tested for their ability to reduce or inhibit aldose reductase enzyme activity via the procedure of S. Hayman et al., as described in the Journal of Biological Chemistry, Vol. 240, p. 877 (1965) and as modified by K. Sestanj et al. in U.S. Pat. No. 3,821,383. In every case, the substrate employed was partially purified aldose reductase enzyme obtained from calf lens.” for “rats.”

[2] = tested on: sorbitol levels in the lens and sciatic nerve of diabetic subjects; assay: lowering of sorbitol levels in the lens and nerve of diabetic subjects; type: in vivo; settings: statement in words
Protocol: as §1

[3] = tested on: formation of sorbitol levels in diabetic rats; assay: inhibition of formation of sorbitol levels in diabetic rats, oral; type: in vivo, rat; settings: 5.0 mg./kg. to 25 mg./kg.
Excerpt: (§2) As previously indicated, the tetrahydroquinoline-derived spiro-hydantoin compounds of this invention are all readily adapted to therapeutic use as aldose reductase inhibitors for the control of chronic diabetic complications, in view of their ability to reduce lens sorbitol levels in diabetic subjects to a statistically significant degree. […] The other compounds of this invention also cause similar results. Furthermore, all the herein described compounds of this invention can be administered by either the oral or parenteral routes of administration, for the present purposes at hand, without causing any significant untoward pharmacological side reactions to occur in the subject to whom they are so administered. In general, these compounds are ordinarily administered in dosages ranging from about 0.25 mg. to about 25 mg. per kg. of body weight per day, although variations will necessarily occur depending upon the weight and condition of the subject being treated and the particular route of administration chosen.

[4] = toxic side effects in diabetic rats, oral; type: in vivo, rat; settings: 5.0 mg./kg. to 25 mg./kg.
Excerpt: as §2

| IC50 (aldose reductase) | aldose reductase inhibitory activity (aldose reductase) | Structure (SMILES) | lowering galactitol levels in the lens of galactosemic subjects [1] | lowering sorbitol levels in the lens and sciatic nerve of diabetic subjects [2] | control (i.e., inhibit) the formation of sorbitol levels in diabetic rats [3] | toxic side effects [4] |
| --- | --- | --- | --- | --- | --- | --- |
| 50 µM | highly potent | CN1CCC2(NC(=O)NC2=O)c2ccccc21.Cl (stereo not drawn) [Product of Example 1, 1'-methyl-1',2',3',4'-tetrahydro-spiro-[imidazolidine-4,4'-quinoline]-2,5-dione hydrochloride] | extremely effective | extremely effective |  |  |
| 10 µM | highly potent | CN1CCC2(NC(=O)NC2=O)c2cccnc21 (stereo not drawn) [Product of Example 2, 1'-methyl-1',2',3',4'-tetrahydro-spiro-[imidazolidine-4,4'-pyrido(2,3-b)pyridine]-2,5-dione] | extremely effective | extremely effective |  |  |
| 10 µM | highly potent | O=C1NC(=O)C2(CCNc3cc(Cl)ccc32)N1 (stereo not drawn) [Product of Example 3, 7'-chloro-1',2',3',4'-tetrahydro-spiro-[imidazolidine-4,4'-quinoline]-2,5-dione] | extremely effective | extremely effective |  |  |

| Structure (SMILES) | IC50 (aldose reductase) | aldose reductase inhibitory activity (aldose reductase) | lowering galactitol levels in the lens of galactosemic subjects [1] | lowering sorbitol levels in the lens and sciatic nerve of diabetic subjects [2] | control (i.e., inhibit) the formation of sorbitol levels in diabetic rats [3] | toxic side effects [4] |
| --- | --- | --- | --- | --- | --- | --- |
| O=C1NC(=O)C2(CCNc3ccc(Cl)cc32)N1 (stereo not drawn) [Product of Example 4, 6'-chloro-1',2',3',4'-tetrahydro-spiro-[imidazolidine-4,4'-quinoline]-2,5-dione] | 1 µM | highly potent | extremely effective | extremely effective | to a significantly high degree | without showing any substantial signs of toxic side effects |
